Data set [1] concerns Mus musculus. Put plainly: Anticonvulsant activity against scMet-induced seizures in mouse at 100 mg/kg, ip after 4 hrs. The data set is classed as functional, organism-based. More on the design: dose 100 mg/kg.
The test system of data set [2] is Mus musculus. The data set can be described thus: Anticonvulsant activity against maximal electroshock-induced seizures in mouse at 30 mg/kg, ip after 0.5 hrs. It is filed as functional, organism-based. More on the design: dose 30 mg/kg. On the technique in general: In the maximal electroshock model the usual endpoint is tonic extension of the hind limbs.
Data set [3] has as its system Mus musculus. Put plainly: Anticonvulsant activity against scMet-induced seizures in mouse at 30 mg/kg, ip after 0.5 hrs. More on the design: dose 30 mg/kg. It is filed as functional, organism-based.
The subject of data set [4] is Mus musculus. Put plainly: Anticonvulsant activity against maximal electroshock-induced seizures in mouse at 100 mg/kg, ip after 4 hrs. It is filed as functional, organism-based. More on the design: dose 100 mg/kg.
Data set [5] deals with Mus musculus. The data set can be described thus: Anticonvulsant activity against maximal electroshock-induced seizures in mouse at 300 mg/kg, ip after 4 hrs. It is filed as functional, organism-based. More on the design: dose 300 mg/kg.
Data set [6] deals with Mus musculus. The data set can be described thus: Anticonvulsant activity against maximal electroshock-induced seizures in mouse at 300 mg/kg, ip after 0.5 hrs. The data set is classed as functional, organism-based. More on the design: dose 300 mg/kg.
The test system of data set [7] is Mus musculus. The data set can be described thus: Anticonvulsant activity against maximal electroshock-induced seizures in mouse at 30 mg/kg, ip after 4 hrs. It is filed as functional, organism-based. More on the design: dose 30 mg/kg.
Data set [8] relates to Mus musculus. The data set can be described thus: Anticonvulsant activity against scMet-induced seizures in mouse at 100 mg/kg, ip after 0.5 hrs. It is filed as functional, organism-based. More on the design: dose 100 mg/kg.
Data set [9] relates to Mus musculus. Put plainly: Anticonvulsant activity against scMet-induced seizures in mouse at 300 mg/kg, ip after 4 hrs. More on the design: dose 300 mg/kg. It is filed as functional, organism-based.
The test system of data set [10] is Mus musculus. The data set can be described thus: Neurotoxicity in mouse at 300 mg/kg, ip after 4 hrs by rotarod test. The data set is classed as toxicity, organism-based. More on the design: dose 300 mg/kg, route intraperitoneal. The conditions noted are these: in vivo. In general terms: Falling from the rotarod earlier than controls is read as motor impairment.

Data set [11] has as its system Mus musculus. Put plainly: Neurotoxicity in mouse at 100 mg/kg, ip after 4 hrs by rotarod test. The data set is classed as toxicity, organism-based. More on the design: dose 100 mg/kg, route intraperitoneal. The conditions noted are these: in vivo.
For data set [12], the system named is Mus musculus. Put plainly: Neurotoxicity in mouse at 30 mg/kg, ip after 4 hrs by rotarod test. The data set is classed as toxicity, organism-based. More on the design: dose 30 mg/kg, route intraperitoneal. The conditions noted are these: in vivo.
Data set [13] has as its system Mus musculus. The data set can be described thus: Anticonvulsant activity against scMet-induced seizures in mouse at 30 mg/kg, ip after 4 hrs. The data set is classed as functional, organism-based. More on the design: dose 30 mg/kg.
Data set [14] has as its system Mus musculus. The data set can be described thus: Anticonvulsant activity against scMet-induced seizures in mouse at 300 mg/kg, ip after 0.5 hrs. The data set is classed as functional, organism-based. More on the design: dose 300 mg/kg.
In data set [15] the test system is Mus musculus. Put plainly: Neurotoxicity in mouse at 300 mg/kg, ip after 0.5 hrs by rotarod test. It is filed as toxicity, organism-based. More on the design: dose 300 mg/kg, route intraperitoneal. The conditions noted are these: in vivo.
The test system of data set [16] is Mus musculus. The data set can be described thus: Anticonvulsant activity against maximal electroshock-induced seizures in mouse at 100 mg/kg, ip after 0.5 hrs. The data set is classed as functional, organism-based. More on the design: dose 100 mg/kg.
Data set [17] has as its system Mus musculus. The data set can be described thus: Neurotoxicity in mouse at 30 mg/kg, ip after 0.5 hrs by rotarod test. More on the design: dose 30 mg/kg, route intraperitoneal. It is filed as toxicity, organism-based. The conditions noted are these: in vivo.

Calls of active or inactive are those of the source. The calls are words filed in the database; no cut-off is given here.

As for `O=c1c2ccc(Cl)cc2oc2ccc(CNCCO)cc12`, the outcome with Mus musculus [1], in the data set with Mus musculus [2], in the data set with Mus musculus [3], in the data set on Mus musculus [4], in the data set on Mus musculus [7] and with Mus musculus [8] was inactive. For the same molecule, the result with Mus musculus [9], in the data set on Mus musculus [13] and in the data set with Mus musculus [14] was inactive. For the same molecule, the result in the data set with Mus musculus [5] and with Mus musculus [6] was Active. For the same molecule, the Neurotoxicity entry in the data set with Mus musculus [10], in the data set on Mus musculus [11] and in the data set on Mus musculus [12] was “Not Active” throughout.

Consider `C[C@@H](CO)N(C)Cc1ccc2oc3cc(Cl)ccc3c(=O)c2c1`, for which the result with Mus musculus [1], in the data set on Mus musculus [2], in the data set on Mus musculus [3], in the data set with Mus musculus [7], with Mus musculus [8] and with Mus musculus [9] was inactive. The outcome in the data set with Mus musculus [13] and in the data set on Mus musculus [14] was inactive. Moreover, the result in the data set with Mus musculus [5], in the data set with Mus musculus [6] and in the data set on Mus musculus [16] was Active. The Neurotoxicity entry with Mus musculus [15] is reported as “Neurotoxic”; in the data set on Mus musculus [10], “Neurotoxic”; with Mus musculus [11], “Not Active”.

Turning to `C[C@H](O)CNCc1ccc2oc3cc(Cl)ccc3c(=O)c2c1`, the result with Mus musculus [1], in the data set with Mus musculus [2], in the data set on Mus musculus [3], in the data set with Mus musculus [5], in the data set on Mus musculus [8] and with Mus musculus [9] was inactive. The outcome in the data set with Mus musculus [13] and with Mus musculus [14] was inactive. In addition, the result with Mus musculus [4], in the data set with Mus musculus [6], in the data set with Mus musculus [7] and with Mus musculus [16] was Active. For the same molecule, the Neurotoxicity entry in the data set on Mus musculus [11], in the data set with Mus musculus [12] and in the data set on Mus musculus [17] was “Not Active” throughout.

On to `O=c1c2ccc(Cl)cc2oc2ccc(CNCCCCCO)cc12`, for which the outcome with Mus musculus [1], in the data set with Mus musculus [2], in the data set with Mus musculus [3], with Mus musculus [4], in the data set with Mus musculus [7] and in the data set on Mus musculus [8] was inactive. Moreover, the outcome with Mus musculus [9], with Mus musculus [13] and with Mus musculus [14] was inactive. Further, the outcome in the data set with Mus musculus [5] and in the data set on Mus musculus [6] was Active. The figures for the Neurotoxicity result in the data set with Mus musculus [15], with Mus musculus [11] and in the data set with Mus musculus [12] were “Neurotoxic”, “Not Active” and “Not Active”, respectively.

With `C[C@@H](O)CNCc1ccc2oc3cc(Cl)ccc3c(=O)c2c1`, the outcome with Mus musculus [1], in the data set on Mus musculus [2], in the data set with Mus musculus [3], in the data set with Mus musculus [5], with Mus musculus [8] and with Mus musculus [9] was inactive. Further, the outcome in the data set with Mus musculus [13] and in the data set with Mus musculus [14] was inactive. The outcome with Mus musculus [4], in the data set on Mus musculus [6], in the data set on Mus musculus [7] and in the data set with Mus musculus [16] was Active. The Neurotoxicity entry in the data set on Mus musculus [15] and with Mus musculus [10] was “Neurotoxic” in each case.

For the origin of these results see ChEMBL document CHEMBL1155915, “Anticonvulsant activity of some xanthone derivatives” (Bioorg Med Chem, 2008).
